Measurements published in publication PMC12775434, “Ultra-large virtual screening unveils potent agonists of the neuromodulatory orphan receptor GPR139” (Nature Communications, 2025).
Where “and” joins values, the source holds several entries; their conditions need not be identical. Identical values can stand only once.

What was measured:
GPR139 [1] = target: T1, GPR139 (Homo sapiens, UniProt Q6DWJ6); test: Ca2+ mobilization assay, antagonist mode (EC80 800 nM Lundbeck Cmp 1a after 20 min preincubation), GPR139-CHOk1; assay type: cell-based; conditions: individual replicates (Supplementary Figure 1)
T1 sequence (Q6DWJ6 1-353): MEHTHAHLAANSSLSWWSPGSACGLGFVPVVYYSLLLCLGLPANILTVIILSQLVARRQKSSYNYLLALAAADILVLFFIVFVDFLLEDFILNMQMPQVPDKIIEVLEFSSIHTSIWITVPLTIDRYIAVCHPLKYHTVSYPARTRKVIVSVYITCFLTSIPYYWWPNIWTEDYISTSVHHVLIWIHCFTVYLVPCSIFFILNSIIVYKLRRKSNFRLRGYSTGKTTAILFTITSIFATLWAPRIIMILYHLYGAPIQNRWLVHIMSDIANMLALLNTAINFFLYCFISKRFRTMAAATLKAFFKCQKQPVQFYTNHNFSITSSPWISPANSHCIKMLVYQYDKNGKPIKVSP
Experimental: (§1) 30,000 GPR139- or M1R-CHOk1 cells/well were seeded in black clear bottom tissue culture treated 96-well plates (Greiner #655090) and grown for 20–24 h. Cells were washed with HEPES buffer (Hank’s Balanced Salt Solution (HBBS) supplemented with 20 mM HEPES, 1 mM MgCl2, and 1 mM CaCl2; pH 7.4). Cells were loaded with 50 µL of 2 µM Fluo-4 AM dye (ThermoFisher #F14202) in HEPES buffer supplemented with 2.5 mM probenecid and 0.01% Pluronic F-68 (ThermoFisher #24040032) for 1 h at 37 °C. Cells were washed with HEPES buffer. 50 µL HEPES buffer supplemented with 2.5 mM probenecid was added, and the cells were incubated for 10 min at 37 °C before measurement. 50 µL test compounds diluted in HEPES buffer from DMSO stocks (final DMSO concentration of maximally 0.3%) were added automatically after baseline measurements. The intracellular calcium mobilization was measured on a FlexStation 3 Multimode Microplate Reader (Molecular Devices) at 37 °C with filters for excitation of 485 nm and emission of 525 nm.
Our primary compound screening protocol consisted of two subsequent steps that allowed to screen for agonists and antagonists simultaneously. In the first step, the screening compounds were applied at 10 µM to test for agonist activity (agonist mode). Following 20 min incubation with the compounds added in the first step, in the second step, an EC80 concentration (800 nM) of the reference agonist Lundbeck Cmp 1a was applied to test for antagonist activity (antagonist mode). In the agonist mode (first step) response is seen only with compounds having agonist activity (Cmp 1a), but not with non-receptor-binding compounds (Vehicle) or antagonists (NCRW0105-E06) (Supplementary Fig. 14). […] No antagonist compounds were identified in this study.

GPR139 [2] = target: T1, GPR139; test: Ca2+ mobilization assay, agonist mode, stable GPR139-CHOk1 cell line; assay type: cell-based; conditions: Agonist mode; individual replicates (Supplementary Figure 1)
Experimental: Primary screening and pharmacological characterization of compounds were performed using a CHO-K1 cell line that stably expresses human GPR139 (GPR139-CHOk1). The GPR139-CHOk1 cell line was kindly provided by H. Lundbeck A/S, Denmark[24]. GPR139-CHOk1 cells were grown in Ham’s F-12 Kaighn’s Modification Medium (ThermoFisher #21127030) supplemented with 10% dialyzed fetal bovine serum (US origin, ThermoFisher #26400044), 100 units/mL Penicillin-Streptomycin (ThermoFisher #15140122), and 1 mg/mL Geneticin (ThermoFisher #11811031). […] M1R-CHOk1 cells were purchased from The Missouri S&T cDNA Resource Center (#CEM100TN00). M1R-CHOk1 cells were grown in Ham’s F12 Medium (ThermoFisher #21765029) supplemented with 10% fetal bovine serum (Brazilian origin, ThermoFisher #10270106), 100 units/mL Penicillin-Streptomycin, and 0.25 mg/mL Geneticin. HEK293A cells transiently transfected with GPR139 were used for additional pharmacological assessment of signaling pathways activated by GPR139. HEK239A cells were generously provided by Dr. Asuka Inoue, Tohoku University, Japan. HEK293A cells were grown in Dulbecco’s Modified Eagle Medium (ThermoFisher #31966047) supplemented with 10% dialyzed fetal bovine serum and 100 units/mL Penicillin-Streptomycin. Cell lines were maintained at 37 °C in humidified incubator equilibrated with 5% CO2.
as §1
Our primary compound screening protocol consisted of two subsequent steps that allowed to screen for agonists and antagonists simultaneously. In the first step, the screening compounds were applied at 10 µM to test for agonist activity (agonist mode). Following 20 min incubation with the compounds added in the first step, in the second step, an EC80 concentration (800 nM) of the reference agonist Lundbeck Cmp 1a was applied to test for antagonist activity (antagonist mode).
Pharmacological data and statistical analyses were performed in GraphPad Prism v9–10 (Graphpad Software Inc., San Diego, CA), which are also specifically described in the figure and table legends. The functional assay responses were normalized to buffer (0%) and Lundbeck Cmp 1a or JNJ-63533054 (100%), for Ca^2+ and IP1 experiments in the GPR139-CHOk1 stable cell line or Ca^2+, G protein activation, and arrestin-3 recruitment experiments in the HEK293A cells transiently transfected with GPR139, respectively. Data are from at least three independent experiments, unless stated otherwise. Concentration-response curves were fitted applying non-linear regression using the log (agonist) versus response model with variable slope. ANOVA was applied for comparing results and determining statistical significance.

Row | SMILES | Ca2+ signal (% of Cmp 1a) (GPR139 [1]) | Ca2+ signal (% of Cmp 1a) (GPR139 [2])
1 | O=C(Cn1ccnc1)Nc1cccc(N2C(=O)c3ccccc3C2=O)c1 [Compound 24, O=C(CN1C=CN=C1)NC=2C=CC=C(C2)N3C(=O)C=4C=CC=CC4C3=O] | 76.1398 % of Cmp 1a and 60.9703 % of Cmp 1a and 76.3719 % of Cmp 1a | -4 % of Cmp 1a and 3 % of Cmp 1a and -9 % of Cmp 1a
2 | C[C@@H](NC(=O)Cn1c2c(sc1=O)CCCCC2)c1ccccc1 [Compound 55, C[C@@H](NC(=O)CN1C=2CCCCCC2SC1=O)C=3C=CC=CC3] | 74.6627 % of Cmp 1a and 75.4146 % of Cmp 1a and 90.0274 % of Cmp 1a | 18 % of Cmp 1a and -2.59 % of Cmp 1a and 22 % of Cmp 1a
3 | Cc1noc(-c2ccc(C)c(NC(=O)CSc3nncs3)c2)n1 [Compound 65, CC1=NOC(=N1)C=2C=CC(C)=C(NC(=O)CSC3=NN=CS3)C2] | 71.2308 % of Cmp 1a and 90.2803 % of Cmp 1a and 89.1818 % of Cmp 1a | 2.7 % of Cmp 1a and 1.38 % of Cmp 1a and -3.61 % of Cmp 1a
4 | O=C(CCn1cncn1)Nc1ccc(Oc2ccc(Cl)cc2)nc1 [Compound 66, ClC=1C=CC(OC=2C=CC(NC(=O)CCN3C=NC=N3)=CN2)=CC1] | 74.4571 % of Cmp 1a and 74.7932 % of Cmp 1a and 88.8781 % of Cmp 1a | 6.43 % of Cmp 1a and -3.62 % of Cmp 1a and -6 % of Cmp 1a
5 | C[C@H](NC(=O)c1ccc(=O)n(-c2ccc(F)cc2)n1)c1ccccc1 [Compound 16, C[C@H](NC(=O)C=1C=CC(=O)N(N1)C=2C=CC(F)=CC2)C=3C=CC=CC3] | 74.1067 % of Cmp 1a and 36.0111 % of Cmp 1a and 92.3974 % of Cmp 1a | -6 % of Cmp 1a and 42 % of Cmp 1a and 24 % of Cmp 1a
6 | CC(=O)Nc1nc(Cn2cnc3c2CC(C)C(C)C3)cs1 (centres unmarked) [Compound 47, CC1CC=2N=CN(CC3=CSC(NC(=O)C)=N3)C2CC1C] | 79.7228 % of Cmp 1a and 79.8068 % of Cmp 1a and 92.3954 % of Cmp 1a | -0.697 % of Cmp 1a and 10 % of Cmp 1a and 0.881 % of Cmp 1a
7 | O=C(Nc1ccnc(-c2ccccc2)n1)C1COc2ccccc21 (centres unmarked) [Compound 31, O=C(NC=1C=CN=C(N1)C=2C=CC=CC2)C3COC=4C=CC=CC34] | 69.7439 % of Cmp 1a and 83.7645 % of Cmp 1a and 84.6387 % of Cmp 1a | -5 % of Cmp 1a and 0.292 % of Cmp 1a and -0.778 % of Cmp 1a
8 | C[C@@H](NC(=O)CSc1nc2cc(Cl)cnc2[nH]1)c1ccccc1 [Compound 63, C[C@@H](NC(=O)CSC1=NC=2C=C(Cl)C=NC2N1)C=3C=CC=CC3] | 69.704 % of Cmp 1a and 80.7602 % of Cmp 1a and 71.5084 % of Cmp 1a | 14 % of Cmp 1a and 5 % of Cmp 1a and 16 % of Cmp 1a
9 | Cc1ccc(OCC(=O)Nc2ccc3c(c2)nc(C)n3C)cc1 [Compound 21, CC1=NC=2C=C(NC(=O)COC=3C=CC(C)=CC3)C=CC2N1C] | 67.0268 % of Cmp 1a and 92.847 % of Cmp 1a and 77.1923 % of Cmp 1a | 1.09 % of Cmp 1a and -7 % of Cmp 1a and -8 % of Cmp 1a
10 | Cc1ccc(C(=O)Nc2cccc(-c3nnc[nH]3)c2)c2c1CCC2 [Compound 61, CC=1C=CC(C(=O)NC=2C=CC=C(C2)C3=NN=CN3)=C4CCCC41] | 50.3835 % of Cmp 1a and 83.4509 % of Cmp 1a and 72.5179 % of Cmp 1a | -6 % of Cmp 1a and -0.901 % of Cmp 1a and -0.172 % of Cmp 1a
